From patent US12208092B2, “Compositions and methods for administering paltusotine to patients with hepatic impairment” (CRINETICS PHARMACEUTICALS, INC., priority 2023, dated 2025)

Tests used:
[1] = molecular target: SST2 (Homo sapiens, UniProt P30874); experiment: bias of G-protein activation versus β-arrestin activation; assay type: cell-based
[2] = system: other human somatostatin receptors

Chain of SST2 (P30874 whole entry): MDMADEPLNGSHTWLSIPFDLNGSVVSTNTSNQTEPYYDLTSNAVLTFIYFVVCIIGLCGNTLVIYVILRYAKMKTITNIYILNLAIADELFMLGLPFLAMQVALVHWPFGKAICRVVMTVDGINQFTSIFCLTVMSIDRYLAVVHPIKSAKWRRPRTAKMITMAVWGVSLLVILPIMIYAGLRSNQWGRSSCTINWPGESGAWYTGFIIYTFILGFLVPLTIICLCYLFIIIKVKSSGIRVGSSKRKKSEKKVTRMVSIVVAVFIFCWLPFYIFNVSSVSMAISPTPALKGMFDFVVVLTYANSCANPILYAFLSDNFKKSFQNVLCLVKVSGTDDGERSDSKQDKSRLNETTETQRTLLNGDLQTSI

N#Cc1cccc(-c2ccc3ncc(-c4cc(F)cc(F)c4)c(N4CCC(N)CC4)c3c2)c1O [paltusotine, 3-[4-(4-amino-1-piperidyl)-3-(3,5-difluorophenyl)-6-quinolyl]-2-hydroxybenzonitrile]
bias for G-protein activation (lowering cAMP) compared to β-arrestin activation [1]: 75 fold | selectivity over other human somatostatin receptors [2]: > 4000 fold
